# Test results from patent US6716833B2, “Acetylenic α-amino acid-based sulfonamide hydroxamic acid tace inhibitors” (priority 1999, dated 2004).
# Counter-ions that a name gives are not always drawn. Like-named read-outs stand apart in the source and are kept apart here.
# Assays:
# Assay type in all cases: biochemical
# MMP-1 = molecular target: T1, MMP-1 (Homo sapiens, UniProt P03956); assay: MMP-1 inhibition (thiopeptide or fluorescent peptide substrate); settings: read-out: MMP-1 IC50
# T1 sequence (P03956 100-469): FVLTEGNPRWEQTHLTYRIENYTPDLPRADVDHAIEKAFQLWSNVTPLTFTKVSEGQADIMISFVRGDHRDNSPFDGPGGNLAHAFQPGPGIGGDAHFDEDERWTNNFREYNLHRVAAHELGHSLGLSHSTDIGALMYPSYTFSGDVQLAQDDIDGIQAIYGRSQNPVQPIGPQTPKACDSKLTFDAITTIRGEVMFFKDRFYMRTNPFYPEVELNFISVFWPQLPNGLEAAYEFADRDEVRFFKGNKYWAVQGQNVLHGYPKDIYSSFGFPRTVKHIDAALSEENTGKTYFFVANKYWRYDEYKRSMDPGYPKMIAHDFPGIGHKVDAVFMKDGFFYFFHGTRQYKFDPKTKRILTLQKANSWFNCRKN
# MMP-9 = MMP-9 (Homo sapiens, UniProt P14780); assay: MMP-9 inhibition (thiopeptide or fluorescent peptide substrate); settings: read-out: MMP-9 IC50
# MMP-13 = MMP-13 (Homo sapiens, UniProt P45452); assay: MMP-13 inhibition (thiopeptide or fluorescent peptide substrate)
# [1] = molecular target: TNF-α converting enzyme (TACE) (Homo sapiens, UniProt P78536); assay: TACE inhibition (fluorescent peptidyl substrate); settings: read-out: TACE IC50
# Sequence of TNF-α converting enzyme (TACE) (P78536 215-824, species assumed): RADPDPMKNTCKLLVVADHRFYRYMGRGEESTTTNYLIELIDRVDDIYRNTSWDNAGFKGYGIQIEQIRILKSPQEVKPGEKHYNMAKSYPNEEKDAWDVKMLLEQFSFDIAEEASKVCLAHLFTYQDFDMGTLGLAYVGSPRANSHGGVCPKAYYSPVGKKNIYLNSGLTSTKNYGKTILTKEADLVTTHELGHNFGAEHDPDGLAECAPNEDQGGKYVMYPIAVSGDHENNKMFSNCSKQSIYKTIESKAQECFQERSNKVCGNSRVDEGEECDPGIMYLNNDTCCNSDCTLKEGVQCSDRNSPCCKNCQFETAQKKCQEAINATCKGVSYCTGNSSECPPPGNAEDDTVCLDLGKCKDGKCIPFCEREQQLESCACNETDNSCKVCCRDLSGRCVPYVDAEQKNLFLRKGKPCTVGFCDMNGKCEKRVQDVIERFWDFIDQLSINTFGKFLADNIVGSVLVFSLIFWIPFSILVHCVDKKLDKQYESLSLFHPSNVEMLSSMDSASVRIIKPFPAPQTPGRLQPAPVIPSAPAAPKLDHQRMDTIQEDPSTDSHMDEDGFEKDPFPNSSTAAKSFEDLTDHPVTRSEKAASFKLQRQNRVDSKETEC
# Sequence of MMP-9 (P14780 94-707): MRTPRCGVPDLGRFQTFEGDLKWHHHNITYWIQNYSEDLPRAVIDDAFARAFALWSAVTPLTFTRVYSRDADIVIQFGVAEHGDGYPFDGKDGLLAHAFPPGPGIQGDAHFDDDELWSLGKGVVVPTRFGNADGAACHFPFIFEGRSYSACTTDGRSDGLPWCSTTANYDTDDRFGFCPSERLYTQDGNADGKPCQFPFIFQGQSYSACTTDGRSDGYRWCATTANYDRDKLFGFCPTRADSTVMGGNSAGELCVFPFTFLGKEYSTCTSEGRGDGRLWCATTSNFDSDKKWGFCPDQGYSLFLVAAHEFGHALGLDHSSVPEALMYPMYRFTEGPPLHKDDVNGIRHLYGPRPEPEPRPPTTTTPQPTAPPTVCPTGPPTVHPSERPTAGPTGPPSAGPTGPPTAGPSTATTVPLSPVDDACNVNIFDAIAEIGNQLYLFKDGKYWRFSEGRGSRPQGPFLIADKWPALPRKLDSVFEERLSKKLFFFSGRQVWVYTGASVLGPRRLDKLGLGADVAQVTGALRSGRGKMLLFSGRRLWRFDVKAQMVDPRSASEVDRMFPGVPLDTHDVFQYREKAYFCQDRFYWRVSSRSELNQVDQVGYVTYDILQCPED
SMILES,IC50 (MMP-1),IC50 (MMP-9),IC50 (MMP-13; read-out: MMP-13 IC50),IC50 [1],other results
"CC#CCOc1ccc(S(=O)(=O)N2CC[S+]([O-])C(C)(C)C2C(=O)NO)cc1 (single isomer, unassigned) [Example 255]",–,–,–,–,"IC50 (MMP-1; Table 9): 46 nM; IC50 (MMP-9; Table 9): 29 nM; IC50 (MMP-13; Table 9, read-out: MMP-13 IC50): 8.7 nM; IC50 ([1]; Table 9): 24 nM"
"CC#CCOc1ccc(S(=O)(=O)N2CC[S+]([O-])C(C)(C)C2C(=O)NO)cc1 (single isomer, unassigned) [Example 256]",–,–,–,–,"IC50 (MMP-1; Table 9): 43 nM; IC50 (MMP-9; Table 9): 145 nM; IC50 (MMP-13; Table 9, read-out: MMP-13 IC50): 48 nM; IC50 ([1]; Table 9): 25 nM"
"CC#CCOc1ccc(S(=O)(=O)N(Cc2cccnc2)C(C)C(=O)NO)cc1 (centres unmarked) [Example 33, 2-[(4-but-2-ynyloxy-Benzenesulfonyl)-pyridin-3-ylmethyl-amino]-N-hydroxy-propionamide Hydrochloride]",239 nM,65 nM,26 nM,5 nM,–
"CCCCC#CCOc1ccc(S(=O)(=O)N2CCSC(C)(C)C2C(=O)NO)cc1 (centres unmarked) [Example 40, 4-(4-hept-2-ynyloxy-Benzenesulfonyl)-2,2-dimethyl-thiomorpholine-3-carboxylic Acid Hydroxyamide]",–,–,–,–,"IC50 (MMP-1; Table 9): 29 nM; IC50 (MMP-9; Table 9): 7.8 nM; IC50 (MMP-13; Table 9, read-out: MMP-13 IC50): 6.6 nM; IC50 ([1]; Table 9): 23 nM"
"CC#CCOc1ccc(S(=O)(=O)N2Cc3ccccc3CC2C(=O)NO)cc1 (centres unmarked) [Example 41, 2-(4-but-2-ynyloxy-Benzenesulfonyl)-1,2,3,4-tetrahydro-isoquinoline-3-carboxylic Acid Hydroxyamide]",121 nM,24 nM,10 nM,7 nM,–
"CC#CCOc1ccc(S(=O)(=O)N2CCCN(C(=O)c3ccccc3)CC2C(=O)NO)cc1 (centres unmarked) [Example 49, 4-Benzoyl-1-(4-but-2-ynyloxy-benzenesulfonyl)-[1,4]diazepane-2-carboxylic Acid Hydroxyamide]",362 nM,75 nM,65 nM,17 nM,–
"CC#CCOc1ccc(S(=O)(=O)N2CCN(C)CC2C(=O)NO)cc1 (centres unmarked) [Example 56, 1-(4-but-2-ynyloxy-Benzenesulfonyl)-4-methyl-piperazine-2-carboxylic Acid Hydroxyamide Hydrochloride]",3340 nM,667 nM,158 nM,41 nM,–
"CC#CCOc1ccc(S(=O)(=O)N2CCN(C(=O)OC(C)(C)C)CC2C(=O)NO)cc1 (centres unmarked) [Example 58, 4-(4-but-2-ynyloxy-Benzenesulfonyl)-3-hydroxycarbamoyl-piperazine-1-carboxylic Acid tert-Butyl Ester]",456 nM,24 nM,17 nM,21 nM,–
"CC#CCOc1ccc(S(=O)(=O)N(CC)C(C(=O)NO)C(C)C)cc1 (centres unmarked) [Example 108, 2-[(4-but-2-ynyloxy-Benzenesulfonyl)-ethyl-amino]-N-hydroxy-3-methyl-butyramide]",92 nM,119 nM,67 nM,33 nM,–
"C#CCN(C(C(=O)NO)C(C)C)S(=O)(=O)c1ccc(OCC#CC)cc1 (centres unmarked) [Example 109, 2-[{[4-(2-Butynyloxy)phenyl]sulfonyl}(2-propynyl)amino]-N-hydroxy-3-methylbutanamide]",210 nM,233 nM,53 nM,55 nM,–
"CC#CCOc1ccc(S(=O)(=O)N(CCC)C(C(=O)NO)C(C)C)cc1 (centres unmarked) [Example 110, 2[(4-but-2-ynyloxy-Benzenesulfonyl)-propyl-amino]-N-hydroxy-3-methyl-butyramide]",196 nM,477 nM,153 nM,66 nM,–
"CC#CCOc1ccc(S(=O)(=O)N(CCCc2ccccc2)C(C(=O)NO)C(C)C)cc1 (centres unmarked) [Example 111, 2-[(4-but-2-ynyloxy-Benzenesulfonyl)-(3-phenyl-propyl)-amino]-N-hydroxy-3-methyl-butyramide]",308 nM,1420 nM,303 nM,481 nM,–
"CC#CCOc1ccc(S(=O)(=O)N(CC2CC2)C(C(=O)NO)C(C)C)cc1 (centres unmarked) [Example 112, 2-[(4-but-2-ynyloxy-Benzenesulfonyl)-cyclopropylmethyl-amino]-N-hydroxy-3-methyl-butyramide]",189 nM,397 nM,142 nM,57 nM,–
"CC#CCOc1ccc(S(=O)(=O)N(CC(C)C)C(C(=O)NO)C(C)C)cc1 (centres unmarked) [Example 113, 2-[(4-but-2-ynyloxy-Benzenesulfonyl)-isobutyl-amino]-N-hydroxy-3-methyl-butyramide]",299 nM,918 nM,309 nM,107 nM,–
"CC#CCOc1ccc(S(=O)(=O)N(Cc2cccnc2)C(C(=O)NO)C(C)C)cc1 (centres unmarked) [Example 114, 2-[(4-but-2-ynyloxy-Benzenesulfonyl)-pyridin-3-ylmethyl-amino]-N-hydroxy-3-methyl-butyramide]",236 nM,193 nM,94 nM,93 nM,–
"CC#CCOc1ccc(S(=O)(=O)N(C)C(C(=O)NO)C2CCCCC2)cc1 (centres unmarked) [Example 115, 2-[(4-but-2-ynyloxy-Benzenesulfonyl)-methyl-amino]-2-cyclohexyl-N-hydroxy-acetamide]",94 nM,14 nM,6.6 nM,31 nM,–
"CC#CCOc1ccc(S(=O)(=O)N(Cc2cccnc2)[C@@H](C(=O)NO)C2CCCCC2)cc1 [Example 116, 2-[(4-but-2-ynyloxy-Benzenesulfonyl)-pyridin-3-ylmethyl-amino]-2-cyclohexyl-N-hydroxy-acetamide]",218 nM,336 nM,53 nM,204 nM,–
"CC#CCOc1ccc(S(=O)(=O)N(CCCN2CCN(C)CC2)C(C(=O)NO)C(C)C)cc1 (centres unmarked) [Example 120, 2-{{[4-(2-Butynyloxy)phenyl]sulfonyl}[3-(4-methyl-1-piperazinyl)propyl]amino}-N-hydroxy-3-methylbutanamide Hydrochloride]",111 nM,211 nM,161 nM,149 nM,–
"CC#CCOc1ccc(S(=O)(=O)N2CCN(C(=O)OCc3ccccc3)CC2C(=O)NO)cc1 (centres unmarked) [Example 219, Benzyl 4-{[4-(2-Butynyloxy)phenyl]sulfonyl}-3-[(hydroxyamino)carbonyl]-1-piperazinecarboxylate]",176 nM,45 nM,10 nM,–,–
"CC1(C)SCCN(S(=O)(=O)c2ccc(OCC#CCN)cc2)C1C(=O)NO (centres unmarked) [Example 265, 4-({4-[(4-Amino-2-butynyl)oxy]phenyl}sulfonyl)-N-hydroxy-2,2-dimethyl-3-thiomorpholine Carboxamide]",–,–,–,–,"IC50 (MMP-1; Table 10): 97 nM; IC50 (MMP-9; Table 10): 8.7 nM; IC50 (MMP-13; Table 10, read-out: MMP-13 IC50): 7.5 nM"

# More lines, main results first:
IC50 (MMP-1),IC50 (MMP-9),IC50 (MMP-13; read-out: MMP-13 IC50),IC50 [1],SMILES,other results
121 nM,86 nM,45 nM,154 nM,"CC#CCOc1ccc(S(=O)(=O)N(CCCN(CC)CC)C(C(=O)NO)C(C)C)cc1 (centres unmarked) [Example 118, 2-{{[4-(2-Butynyloxy)phenyl]sulfonyl}[3-(diethylamino)propyl]amino}-N-hydroxy-3-methylbutanamide]",–
129 nM,94 nM,46 nM,124 nM,"CC#CCOc1ccc(S(=O)(=O)N(CCCN2CCOCC2)C(C(=O)NO)C(C)C)cc1 (centres unmarked) [Example 119, 2-{{[4-(2-Butynyloxy)phenyl]sulfonyl}[3-(4-morpholinyl)propyl]amino}-N-hydroxy-3-methylbutanamide]",–
–,3.7 nM,–,74 nM,"CC#CCOc1ccc(S(=O)(=O)N(C)C(C(=O)NO)C(C)(C)SCc2cccnc2)cc1 (centres unmarked) [Example 152, 2-[(4-but-2-ynyloxy-Benenesulfonyl)-methyl-amino]-N-hydroxy-3-methyl-3-(pyridin-3-ylmethylsulfanyl)-butyramide]",IC50 (MMP-13; MMP-13 IC50): 1.7 nM
–,14 nM,7.6 nM,23 nM,"CC#CCOc1ccc(S(=O)(=O)N2CCNCC2C(=O)NO)cc1 (centres unmarked) [Example 214, 1-(4-but-2-ynyloxy-Benzenesulfonyl)-piperazine-2-carboxylic Acidhydroxyamide]",–
–,221 nM,97 nM,28 nM,"CC#CCOc1ccc(S(=O)(=O)N2CCN(C(=O)N(CC)CC)CC2C(=O)NO)cc1 (centres unmarked) [Example 216, 4-(4-but-2-ynyloxy-Benzenesulfonyl)-piperazine-1,3-dicarboxylic Acid 1-Diethylamide 3-Hydroxyamide]",–
–,251 nM,119 nM,12 nM,"CC#CCOc1ccc(S(=O)(=O)N2CCN(C(=O)c3cccs3)CC2C(=O)NO)cc1 (centres unmarked) [Example 226, 1-(4-but-2-ynyloxy-Benzenesulfonyl)-4-(thiophene-2-carbonyl)-piperazine-2-carboxylic Acid Hydroxyamide]",–
–,71 nM,9.2 nM,9 nM,"CC#CCOc1ccc(S(=O)(=O)N2CCN(C(=O)OC)CC2C(=O)NO)cc1 (centres unmarked) [Example 228, 4-(4-but-2-ynyloxy-Benzenesulfonyl)-3-hydroxycarbamoyl-piperazine-1-carboxylic Acid Methyl Ester]",–
287 nM,25 nM,–,83 nM,"CC#CCOc1ccc(S(=O)(=O)N2CCN(Cc3ccccc3)CCC2C(=O)NO)cc1 (centres unmarked) [Example 290, 1-Benzyl-4-{[4-(2-butynyloxy)phenyl]sulfonyl}-N-hydroxy-1,4-diazepane-5-carboxamide]",–
